The values that follow come from patent US20080153838A1, “Compounds Having Tie2 (Tek) Activity” (ASTRAZENECA AB, priority 2005, published 2008).

By IC50 is commonly meant the concentration that gives 50% inhibition.

Molecules are shown by their SMILES.

The target of experiment [1] is T1, Tie2 receptor tyrosine kinase (Homo sapiens, UniProt Q02763). The experiment in a line: Cellular Tie2 autophosphorylation assay (Test (b)). Set-up: one can use natural cell lines or primary cells which are known to express the receptor of choice; endogenous in cells; host or cells: EA.hy926/B3 cells (HUVEC named as alternative). The experiment is classed as cell-based. The settings on record: Ang1 ligand stimulated whole cells (e.g. EA.hy926/B3); read-out: IC50 (μM) Test (b): Inhibition of autophosphorylation of Tie2 receptor tyrosine kinase. An excerpt:
b. Cellular Tie2 Autophosphorylation Assay
This assay is based on measuring the ability of compounds to inhibit autophosphorylation of the Tie2 receptor which normally leads to the production of “activated” receptor that in turn initiates the particular signal transduction pathways associated with the receptor function.
Autophosphorylation can be achieved by a number of means. It is known that expression of recombinant kinase domains in baculoviral systems can lead to the production of phosphorylated and activated receptor. It is also reported that over expression of receptors in recombinant cell lines can itself lead to receptor autophosphorylation in the absence of the ligand (Heldin C-H. 1995 Cell: 80, 213-223; Blume-J. P, Hunter T. 2001 Nature: 411, 355-65). Furthermore, there are numerous literature examples in which chimaeric receptors have been constructed. In these cases the natural, external cell surface domain of the receptor has been replaced with that of a domain which is known to be readily dimerised via the addition of the appropriate ligand (e.g. TrkA-Tie2/NGF ligand (Marron, M. B., et al., 2000 Journal of Biological Chemistry: 275:39741-39746) or C-fms-Tie-1/CSF-1 ligand (Kontos, C. D., et al., 2002 Molecular and Cellular Biology: 22, 1704-1713). Thus when the chimaeric receptor expressed in a host cell line and the respective ligand is added, this induces autophosphorylation of the chimeric receptor's kinase domain. This approach has the advantage of often allowing a known (and often easily obtained) ligand to be used instead of having to identify and isolate the natural ligand for each receptor of interest.
Naturally if the ligand is available one can use natural cell lines or primary cells which are known to express the receptor of choice and simply stimulate with ligand to achieve ligand induced phosphorylation. […]
Target sequence in this assay (Q02763 23-1124): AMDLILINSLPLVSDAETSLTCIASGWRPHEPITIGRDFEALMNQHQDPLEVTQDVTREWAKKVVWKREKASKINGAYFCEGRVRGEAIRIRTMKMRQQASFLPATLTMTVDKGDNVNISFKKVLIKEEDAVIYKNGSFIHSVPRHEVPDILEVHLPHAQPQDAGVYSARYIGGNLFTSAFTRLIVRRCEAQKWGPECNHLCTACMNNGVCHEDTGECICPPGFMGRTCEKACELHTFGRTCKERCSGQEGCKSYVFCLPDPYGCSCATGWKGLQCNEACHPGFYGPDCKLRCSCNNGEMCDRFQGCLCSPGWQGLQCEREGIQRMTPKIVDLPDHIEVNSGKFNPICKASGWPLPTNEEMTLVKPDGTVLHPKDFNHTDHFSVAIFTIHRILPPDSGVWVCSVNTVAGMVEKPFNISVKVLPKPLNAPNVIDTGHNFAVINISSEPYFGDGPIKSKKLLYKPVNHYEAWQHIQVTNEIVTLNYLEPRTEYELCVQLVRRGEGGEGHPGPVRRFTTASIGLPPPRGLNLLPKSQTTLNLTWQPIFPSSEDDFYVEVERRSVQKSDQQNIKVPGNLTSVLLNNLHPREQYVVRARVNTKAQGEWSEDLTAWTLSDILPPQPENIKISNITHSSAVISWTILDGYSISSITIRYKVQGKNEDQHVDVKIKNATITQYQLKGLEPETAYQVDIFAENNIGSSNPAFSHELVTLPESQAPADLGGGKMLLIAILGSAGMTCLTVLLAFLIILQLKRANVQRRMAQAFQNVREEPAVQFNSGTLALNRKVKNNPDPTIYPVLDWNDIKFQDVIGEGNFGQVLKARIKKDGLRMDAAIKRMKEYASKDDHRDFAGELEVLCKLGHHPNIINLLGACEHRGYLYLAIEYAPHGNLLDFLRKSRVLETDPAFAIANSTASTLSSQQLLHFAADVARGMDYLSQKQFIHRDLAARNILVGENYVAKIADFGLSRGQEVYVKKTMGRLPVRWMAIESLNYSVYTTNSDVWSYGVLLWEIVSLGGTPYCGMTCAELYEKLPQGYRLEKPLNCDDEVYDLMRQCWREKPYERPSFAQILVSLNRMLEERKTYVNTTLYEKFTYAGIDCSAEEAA

The target of experiment [2] is T1, Tie2 receptor tyrosine kinase. Description: In vitro receptor tyrosine kinase inhibition assay (ELISA, Test (a)). Format: biochemical. Set-up: consist of only the intracellular portion C-terminal portion of the respective receptor, within which is found the kinase domain; made in house; host or cells: baculovirus/Sf21 insect cells; cleared lysate used without purification. The settings on record: recombinant human Tie2 kinase domain, peptide substrate. Here is the method:
a. In Vitro Receptor Tyrosine Kinase Inhibition Assay
To test for inhibition of Tie2 receptor tyrosine kinase, compounds are evaluated in a non-cell based protein kinase assay by their ability to inhibit the protein kinase enzyme phosphorylation of a tyrosine containing polypeptide substrate in an ELISA based microtitre plate assay. In this particular case, the assay was to determine the IC50, for three different recombinant human tyrosine kinases Tie2, KDR and Flt.
To facilitate production of the tyrosine kinases, recombinant receptor genes were produced using standard molecular biology cloning and mutagenesis techniques. These recombinant proteins fragments encoded within these genes consist of only the intracellular portion C-terminal portion of the respective receptor, within which is found the kinase domain. The recombinant genes encoding the kinase domain containing fragments were cloned and expressed in standard baculovirus/Sf21 system (or alternative equivalent). […]
Constitutive kinase activity of these recombinant proteins was determined by their ability to phosphorylate a synthetic peptide (made up of a random co-polymer of Glutamic Acid, Alanine and Tyrosine in the ratio of 6:3:1). […]
The immobilised phospho-peptide product of the reaction was detected by immunological methods. […] Following extensive washing with PBS-T, HRP activity in each well of the plate was measured […] using 22′-Azino-di-[3-ethylbenzthiazoline sulfonate (6)] diammonium salt crystals ABTS (Sigma P4922—prepared as per manufactures instructions) as a substrate incubated for 30-45 minutes to allow colour development, before 100 ul of 1M H2SO4 was added to stop the reaction.
Quantification of colour development and thus enzyme activity was achieved by the measurement of absorbance at 405 nm on a Molecular Devices ThermoMax microplate reader. Kinase inhibition for a given compound was expressed as an IC50 value. […] The range of phosphorylation was calculated from the positive (vehicle plus ATP) and negative (vehicle minus ATP) control values.
Target sequence in this assay (Q02763 770-1124 limits assumed): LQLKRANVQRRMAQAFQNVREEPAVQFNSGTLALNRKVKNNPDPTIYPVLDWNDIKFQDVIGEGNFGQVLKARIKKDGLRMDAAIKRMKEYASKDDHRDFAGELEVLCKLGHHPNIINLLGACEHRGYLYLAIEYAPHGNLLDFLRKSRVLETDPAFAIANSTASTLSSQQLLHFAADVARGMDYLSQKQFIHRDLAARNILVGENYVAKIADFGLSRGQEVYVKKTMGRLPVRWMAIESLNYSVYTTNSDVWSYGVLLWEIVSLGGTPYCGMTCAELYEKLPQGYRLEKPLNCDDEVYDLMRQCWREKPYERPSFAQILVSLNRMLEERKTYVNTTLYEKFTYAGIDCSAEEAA
A general note: An ELISA detects its analyte on a solid surface through an enzyme-linked reagent.

With `CC(C)(C)c1cc(NC(=O)Nc2cccc(C#Cc3ccc(N)nc3)c2)no1` [Example 2, N-{3-[(6-aminopyridin-3-yl)ethynyl]phenyl}-N′-(5-tert-butylisoxazol-3-yl)urea], the IC50 in experiment [1] came out at 0.031 µM; in experiment [2], 2.6 µM.
Regarding `CC(C)(C)c1cc(NC(=O)Nc2cccc(C#Cc3cccnc3N)c2)no1` [Example 3, N-2{3-[(2-aminopyridin-3-yl)ethynyl]phenyl}-N′-(5-tert-butylisoxazol-3-yl)urea], the values for the half-inhibitory concentration (IC50) in experiment [1] and in experiment [2] were 0.077 µM and 8.2 µM, respectively.
Consider `CC(C)(C)c1cc(NC(=O)Nc2cccc(C#Cc3cnc(N)cn3)c2)no1` [Example 5, N-{3-[(5-aminopyrazin-2-yl)ethynyl]phenyl}-N′-(5-tert-butylisoxazol-3-yl)urea], for which the concentration for half-maximal inhibition (IC50) in experiment [1] was found to be 0.02 µM; in experiment [2], 4.4 µM.
